# In patent publication US10358469B2, “Methods and pharmaceutical compositions for the treatment of cancer” (INSERM (INSTITUT NATIONAL DE LA SANTÉ ET DE LA RECHERCHE …, priority 2014, dated 2019):
# How the values were obtained:
# [1] = system: D3H2LN cells; experiment: Transwell Boyden chamber migration assay, D3H2LN cells; format: cell-based; conditions: 2 μM, toward 10% FBS, 12 h, FIG. 7A
# Experimental: FIG. 7: Antp-AAC-11-LZ (363-399) peptide inhibits cell migration and invasion. (A) D3H2LN cells were added to the upper well of modified Boyden chamber (transwell) plates with a vehicle or with either 2 μM of the Antp-AAC-11-LZ (363-399) peptide or the Antp-only peptide and subjected to a transwell migration assay as described under Materials and methods. The cells were allowed to migrate toward 10% FBS for 12 […]h. Triplicate wells were used for each of three independent experiments. The results are expressed relative to the migration of the untreated cells (=100%). Column: Mean of three experiments. Bar: s.e. P-value was determined by Student's t-test (*P<0.01). (B) D3H2LN cells were seeded in a Matrigel-coated Boyden chamber with a vehicle or with either 2 μM of the Antp-AAC-11-LZ (363-399) peptide or the Antp-only peptide and subjected to a transwell migration assay as described under Materials and methods. The cells were allowed to migrate toward 10% FBS for 24 […]h. Triplicate wells were used for each of three independent experiments. The results are expressed relative to the migration of the untreated cells (=100%). Column: Mean of three experiments. Bar: s.e. P-value was determined by Student's t-test (*P<0.01) […]
# [2] = system: normal cells (HaCat, NCTC and human primary fibroblasts); experiment: Cell viability (MTT) of normal cells; format: cell-based; conditions: increasing concentrations, 24 hours, FIG. 1B
# [3] = Toxicity of peptide injection in nude mice; conditions: i.p. twice per week for 4 weeks
# Experimental: Nude mice were injected intraperitoneally twice a week for 4 weeks with normal saline solution or the indicated doses of Antp-AAC-11-LZ (363-399) peptide (n=3-4 mice per group) and were monitored daily for body weight (mean±s.e.m).
# Nude mice were injected intraperitoneally twice a week for 4 weeks with normal saline solution or the indicated doses of Antp-AAC-11-LZ (377-399) peptide (n=3-4 mice per group) and were monitored daily for body weight (mean±s.e.m).
# We first evaluated the toxicity of the Antp-AAC-11-LZ (363-399) peptide in nude mice that were injected intraperitoneally twice per week for 4 weeks with the Antp-AAC-11-LZ (363-399) peptide or normal saline solution (dose range: 0.8-4.8 mg peptide/kg body weight; n=3-4 mice per group).
# We first evaluated the toxicity of the Antp-AAC-11-LZ (377-399) peptide in nude mice that were injected intraperitoneally twice per week for 4 weeks with the Antp-AAC-11-LZ (377-399) peptide or normal saline solution (dose range: 1-6 mg peptide/kg body weight; n=3-4 mice per group).
# [4] = system: A549 cells; experiment: Cell viability (MTT) of A549 cells under low serum / serum deprivation; format: cell-based
# Experimental: (A) Karpas 1106, SU-DHL-5, SeAx and HUT-78 cells were plated at a densities of 6×10^3 in 96 well plates (100 μL total volume per well) and treated for 24 hours in a 37° C. incubator (5% CO2) with increasing concentrations of the Antp-AAC-11-LZ (363-399). 20 μL MTS reagent was then added to each well and plates were incubated for an additional 4 hours. Absorbance was measured at 490 nm using a 96-well plate reader. The extent to which the Antp-AAC-11-LZ (363-399) peptide inhibited cell proliferation was calculated as a percentage of the absorbance in each well containing the Antp-AAC-11-LZ (363-399) peptide relative to wells containing no peptide (negative control). Each bar represents the mean±s.d. from at least three independent experiments. (B) Indicated cells were plated at a densities of 4.5×10^3 in 96 well plates (100 μL total volume per well) and allowed to attach overnight in a 37° C. incubator (5% CO2). Media was removed from cells and replaced with media containing Antp-AAC-11-LZ (363-399) peptide at various concentrations (100 μL total volume per well) peptide and the plates were incubated for 24 hours. The MTT assay was then completed and data analysis was performed as described herein. […] A549 cells were plated at a densities of 4.5×10^3 in 96 well plates (100 μL total volume per well) and allowed to attach overnight in a 37° C. incubator (5% CO2). Media was removed from cells and replaced with media containing the indicated peptides at 10 μM (100 μL total volume per well) and the plates were incubated for 24 hours. The MTT assay was then completed and data analysis was performed as described herein.
# (A) A549 cells were plated at a densities of 4.5×10^3 in 96 well plates (100 μL total volume per well) and allowed to attach overnight in a 37° C. incubator (5% CO2). Media was removed from cells and replaced with media containing the indicated peptides at various concentrations (100 μL total volume per well) peptide in the absence of serum and the plates were incubated for 24 hours. The MTT assay was then completed and data analysis was performed as described herein. (B) A549 or HaCat cells were plated at a densities of 4.5×10^3 in 96 well plates (100 μL total volume per well) and allowed to attach overnight in a 37° C. incubator (5% CO2). Media was removed from cells and replaced with media containing the indicated peptides at 10 μM (100 μL total volume per well) peptide in the absence of serum and the plates were incubated for 24 hours. The MTT assay was then completed and data analysis was performed as described herein.
# A549 cells were plated at a densities of 4.5×10^3 in 96 well plates (100 μL total volume per well) and allowed to attach overnight in a 37° C. incubator (5% CO2). Cells were left untreated or pre-treated with 100 μM Z-VAD-FMK for 2 h. […] The MTT assay was then completed and data analysis was performed as described herein.
# (A) A549 cells were plated at a densities of 4.5×10^3 in 96 well plates (100 μL total volume per well) and allowed to attach overnight in a 37° C. incubator (5% CO2). Media was removed from cells and replaced with media containing the indicated Antp-AAC-11-LZ peptides at various concentrations (100 μL total volume per well) peptide and the plates were incubated for 24 hours. The MTT assay was then completed and data analysis was performed as described herein. (B) A549 or HaCat cells were plated at a densities of 4.5×10^3 in 96 well plates (100 μL total volume per well) and allowed to attach overnight in a 37° C. incubator (5% CO2). Media was removed from cells and replaced with media containing the indicated peptides at 10 μM (100 μL total volume per well) peptide in the absence of serum and the plates were incubated for 24 hours. The MTT assay was then completed and data analysis was performed as described herein.
substance,measurement,setting,value
Ac-RQIKIWFKKQNRRMKWKKAKLNAEKLKDFKIRLQYFARGLQVYIRQLRLALQGKT-NH2 [Antp-AAC-11-LZ (363-399)],cell migration,[1],substantially decreased
same,toxicity in normal cells,[2],much reduced toxicity
same,mortality,[3]; 0.8-4.8 mg peptide/kg body weight,No mice died
same,body weight difference between groups,"[3]; 0.8-4.8 mg peptide/kg body weight, FIG. 8A",no significant difference
same,"toxicity to kidney, lungs, heart, liver, pancreas and spleen","[3]; 0.8-4.8 mg peptide/kg, end of experiment",no obvious toxicity
same,cellular viability,[4]; 2 µM,97 % of control
same,influence of cycloheximide on peptide induced-cytotoxicity,"[4]; 10 μM cycloheximide, various peptide concentrations, data not shown",had no influence
same,induction of cell death of A549 cells,"[4]; 10 μM, serum deprivation, 24 hours, FIG. 1C",induced cell death
same,effect of pan-caspase inhibitor Z-VAD-FMK on induced cytotoxicity / cell death,"[4]; 100 μM Z-VAD-FMK, 2 h pre-treatment, 24 hours, cisplatin 50 μM, FIG. 3","did not rescue, but somehow increased"
